According to patent US20200323986A1, “HYDROPHOBIC ARENESULFONATE SALTS” (Theracaine LLC, priority 2017, published 2020):

Key:
[1] = Pharmacokinetics of caine anesthetic salt particles after a single subcutaneous dose (plasma drug concentration versus time); details: rat; for delivery of lidocaine over time (plasma lidocaine concentration versus time) / initial spike in plasma lidocaine concentration: in vivo, sc; for initial spike in bupivacaine plasma concentration: single subcutaneous dose, 650 μm particles in PEG200, Groups 1 and 2
Procedure: (§1) The test articles are drug compositions consisting of B-4BrBSA-650, B-35BrBSA-650, L-4BrBSA-650, and L-35BrBSA-650 particles in a polyethylene glycol 200 vehicle (PEG200; Sigma-Aldrich, polyethylene glycol 200 Bioultra). The test articles were prepared by adding a volume of […] to an appropriate weighed amount of test article in a vial, gently mixed, and then applied uniformly via a single subcutaneous dose via incision on the dorsum of female Sprague Dawley rats.
(§2) Doses were administered via an incision on the dorsal region, as a subcutaneous liquid application (suspension of powder). Each test article was administered at an amount determined by each animal's weight using the calculated mg per kg-bw (bodyweight) as shown in the table below.
(§3) The vehicle was provided as a liquid in an individual container. […] A volume of 100 μL of vehicle was added to each individual dose, allowed to soak, and shaken occasionally to uniformly mix the particles with the PEG200.
(§4) For all groups, the test article suspension was applied to the subcutaneum using a plastic spatula. The test article was distributed as evenly as possible. Incisions were closed with staples, and the animals allowed to recover. All animals received analgesia and antibiotic treatment.
(§5) Cage side observations were performed daily.

[2] = Gross evaluation of dose sites and general gross necropsy at study termination; format: in vivo, female Sprague Dawley rats; details: rat
Procedure: Sigma-Aldrich, polyethylene glycol 200 Bioultra). […] The test article was distributed as evenly as possible. […] All animals received analgesia and antibiotic treatment. Cage side observations were performed daily.

[3] = Clinical (cage side) observations and body weight after a single subcutaneous dose; details: rat; for tolerability as administered (summary): particles in PEG200, 114/134/161/193 mg/kg-bw (Groups 1-4)
Procedure: as §1, §2, §3, §4, §5

[4] = at study termination (after 96 h sampling)
[5] = animals that lost weight, over the course of the study
[6] = five animals per group, single subcutaneous dose
[7] = group average, single subcutaneous dose

SMILES | delivery of lidocaine over time (plasma lidocaine concentration versus time) [1] | initial spike in plasma lidocaine concentration [1] | residual test article visible at dose site ([2]; in vivo) | vascularization surrounding the incision sites (dose site observation) ([2]; in vivo) | weight loss ([3]; in vivo) | animals that lost weight over the course of the study ([3]; in vivo, sc) | group mean body weight change at the end of the study ([3]; in vivo, sc) | tolerability as administered (summary) ([3]; single subcutaneous dose) | initial spike in bupivacaine plasma concentration ([1]; FIGS. 1-2) | encapsulation at dose site ([2]; at study termination) | other dose site findings (hematoma, unknown material) ([2]; at study termination) | vascularization surrounding the incision sites (dose site observation) ([2]; at study termination) | residual test article visible at dose site [2, 4] | weight loss [3, 5] | animals that lost weight over the course of the study [3, 6] | group mean body weight change at the end of the study [3, 7] | also measured
CCN(CC)CC(=O)Nc1c(C)cccc1C.Cc1c(Br)cc(S(=O)(=O)O)cc1Br [L-35BrBSA-650, Lidocaine 3,5-dibromo-4-methybenzenesulfonate salt] | at least 24 hours | avoids the initial spike in plasma lidocaine concentration | No residual test article or encapsulation was visible | very slight to moderate vascularization | less than 5 % total body weight | two out of five | 1 gram | well tolerated |  |  |  |  |  |  |  |  | encapsulation at dose site ([2]; in vivo): No residual test article or encapsulation was visible
CCCCN1CCCCC1C(=O)Nc1c(C)cccc1C.Cc1c(Br)cc(S(=O)(=O)O)cc1Br (centres unmarked) [B-35BrBSA-650, Bupivacaine 3,5-dibromo-4-methybenzenesulfonate salt] |  |  |  |  |  |  |  | well tolerated | without the initial spike in bupivacaine plasma concentration | No encapsulation was present | A small hematoma was present in Animal #7 | very slight to slight vascularization | Small areas of residual test article were visible at or near the incision site in all animals | less than 5 % total body weight | two out of five | 1 gram | duration of delivery of bupivacaine (plasma bupivacaine concentration versus time) ([1]; single subcutaneous dose via dorsal incision, 650 μm particles in 100 μL PEG200, 114 (Group 1) / 134 (Group 2) mg/kg-bw, plasma to 96 h, FIGS. 1-2): greater duration of delivery of bupivacaine compared to test article 1
CCCCN1CCCCC1C(=O)Nc1c(C)cccc1C.O=S(=O)(O)c1ccc(Br)cc1 (centres unmarked) [Example B-4BrBSA-650, Bupivacaine 4-bromobenzenesulfonate salt] |  |  |  |  |  |  |  | well tolerated | initial spike in bupivacaine plasma concentration exhibited by test article 1 | No additional encapsulation or residual test article was visible | Hematomas were present in Animals #2 and #4, with encapsulation of clotted blood in Animal #4 | very slight to slight vascularization | No additional encapsulation or residual test article was visible | less than 5 % total body weight | two out of five | 4 gram | 
CCN(CC)CC(=O)Nc1c(C)cccc1C.O=S(=O)(O)c1ccc(Br)cc1 [Example L-4BrBSA-650, Lidocaine 4-bromobenzenesulfonate salt] | at least 24 hours | initial spike in plasma lidocaine concentration exhibited by test article 3 | No residual test article was visible | moderate to severe vascularization | less than 5 % total body weight | four out of five | −1 gram |  |  |  |  |  |  |  |  |  | encapsulation size at dose site ([2]; in vivo): 0.5-3 cm; other dose site findings (hematoma, unknown material) ([2]; in vivo): Areas of an unknown brown material were present in Animal #13; survival ([3]; single subcutaneous dose, to scheduled euthanasia (96 h study)): all animals survived until scheduled euthanasia
